What was measured:
[1] = system: TT cells; test: TT Cell Proliferation Assay (WST-8, 8 days); assay type: cell-based; conditions: Homo sapiens, TT, 192 h, growth inhibition in TT cells, read-out: TT Cellular Activity
Summary of the method: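 TT cells, 6,000/well in RPMI-1640 with 10% FBS, attached 24 h, then exposed to compound at 5 μM down to 0.0005 μM final (0.5% DMSO) for 8 days at 37 °C. WST-8 added for 5 h, absorbance at 450 nm. IC50 calculated from the dilution series.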

[2] = biological target: T1, BAF3-KIF5B-RET cells (Homo sapiens, UniProt P07949); test: BAF3-KIF5B-RET Cell proliferation assay (CellTiter-Glo, 72 hours); assay type: cell-based; conditions: growth inhibition, read-out: BA/F3-KIF5B-RET Cellular activity
T1 construct: fused on or other part: P33176 (Kinesin-1 heavy chain)
Summary of the method: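 Cells seeded at 2,000/well in RPMI-1640 with 10% FBS and left 24 h at 37 °C, then exposed 72 h to nine compound levels (final 1 μM down to 0.00015 μM, 0.1% DMSO). CellTiter-Glo luminescence gave viability versus DMSO wells, from which IC50 was fitted.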

[3] = biological target: T2, human KDR kinase (Homo sapiens, UniProt P35968); test: KDR Kinase Assay (LanthaScreen TR-FRET enzymatic assay); assay type: biochemical; conditions: 1.2 nM KDR, 92 μM ATP
T2 construct: purchased Carna 08-191
Summary of the method: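 Recombinant human KDR (1.2 nM) preincubated 15 min at room temperature with compound, then reacted with 3 μM FAM-P22 peptide and 92 μM ATP in 50 mM HEPES pH 7.5 for 1 h at 28° C. EDTA stop, then TR-FRET acceptor/donor ratio read; percent of 1% DMSO control fitted sigmoidally for IC50.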

[4] = biological target: T3, human RET kinase (Homo sapiens, UniProt P07949); test: RET Kinase Assay (LanthaScreen TR-FRET enzymatic assay); assay type: biochemical; conditions: 7 nM RET, 23 μM ATP
T3 construct: purchased Carna 08-159
Summary of the method: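 Human RET (7 nM) preincubated 15 min with compound in 50 mM HEPES pH 7.5, 0.0015% Brij-35, then reacted with 3 μM FAM-P2 peptide and 23 μM ATP for 1 h at 28° C.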

T2 sequence (P35968 20-1356): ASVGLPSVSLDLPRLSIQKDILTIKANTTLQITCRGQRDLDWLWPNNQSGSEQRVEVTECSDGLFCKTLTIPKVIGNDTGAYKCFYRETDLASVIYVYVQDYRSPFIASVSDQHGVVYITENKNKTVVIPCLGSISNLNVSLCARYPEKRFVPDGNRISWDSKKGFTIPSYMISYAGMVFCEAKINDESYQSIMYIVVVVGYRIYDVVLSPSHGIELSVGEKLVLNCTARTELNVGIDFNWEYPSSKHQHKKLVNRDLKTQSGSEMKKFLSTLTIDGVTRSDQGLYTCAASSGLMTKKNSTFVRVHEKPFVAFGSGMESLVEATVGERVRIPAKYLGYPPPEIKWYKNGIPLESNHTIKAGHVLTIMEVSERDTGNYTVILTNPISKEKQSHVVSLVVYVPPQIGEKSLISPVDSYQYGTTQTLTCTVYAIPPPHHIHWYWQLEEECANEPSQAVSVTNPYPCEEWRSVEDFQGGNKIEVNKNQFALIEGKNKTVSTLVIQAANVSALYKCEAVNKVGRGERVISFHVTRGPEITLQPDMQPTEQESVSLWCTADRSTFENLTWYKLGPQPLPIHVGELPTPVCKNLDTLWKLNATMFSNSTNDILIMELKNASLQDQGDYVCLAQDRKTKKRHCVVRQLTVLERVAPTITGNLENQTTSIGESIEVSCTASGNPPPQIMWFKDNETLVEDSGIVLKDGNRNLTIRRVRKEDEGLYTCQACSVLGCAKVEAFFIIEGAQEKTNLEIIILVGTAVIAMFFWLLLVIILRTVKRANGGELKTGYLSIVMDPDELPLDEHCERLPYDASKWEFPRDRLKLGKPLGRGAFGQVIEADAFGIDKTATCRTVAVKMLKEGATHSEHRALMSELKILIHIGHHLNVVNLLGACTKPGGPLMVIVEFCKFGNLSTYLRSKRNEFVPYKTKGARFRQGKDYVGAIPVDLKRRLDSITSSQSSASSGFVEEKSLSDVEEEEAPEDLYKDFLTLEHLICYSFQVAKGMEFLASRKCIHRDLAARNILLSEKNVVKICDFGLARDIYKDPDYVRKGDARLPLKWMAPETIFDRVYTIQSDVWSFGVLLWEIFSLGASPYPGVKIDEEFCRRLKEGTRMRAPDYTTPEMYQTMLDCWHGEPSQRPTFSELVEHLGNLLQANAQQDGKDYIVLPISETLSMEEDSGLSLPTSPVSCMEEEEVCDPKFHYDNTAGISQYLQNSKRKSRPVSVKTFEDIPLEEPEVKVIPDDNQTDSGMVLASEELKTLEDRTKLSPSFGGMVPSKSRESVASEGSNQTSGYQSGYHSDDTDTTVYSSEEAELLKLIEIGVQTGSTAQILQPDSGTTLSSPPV
T3 sequence (P07949 29-1114): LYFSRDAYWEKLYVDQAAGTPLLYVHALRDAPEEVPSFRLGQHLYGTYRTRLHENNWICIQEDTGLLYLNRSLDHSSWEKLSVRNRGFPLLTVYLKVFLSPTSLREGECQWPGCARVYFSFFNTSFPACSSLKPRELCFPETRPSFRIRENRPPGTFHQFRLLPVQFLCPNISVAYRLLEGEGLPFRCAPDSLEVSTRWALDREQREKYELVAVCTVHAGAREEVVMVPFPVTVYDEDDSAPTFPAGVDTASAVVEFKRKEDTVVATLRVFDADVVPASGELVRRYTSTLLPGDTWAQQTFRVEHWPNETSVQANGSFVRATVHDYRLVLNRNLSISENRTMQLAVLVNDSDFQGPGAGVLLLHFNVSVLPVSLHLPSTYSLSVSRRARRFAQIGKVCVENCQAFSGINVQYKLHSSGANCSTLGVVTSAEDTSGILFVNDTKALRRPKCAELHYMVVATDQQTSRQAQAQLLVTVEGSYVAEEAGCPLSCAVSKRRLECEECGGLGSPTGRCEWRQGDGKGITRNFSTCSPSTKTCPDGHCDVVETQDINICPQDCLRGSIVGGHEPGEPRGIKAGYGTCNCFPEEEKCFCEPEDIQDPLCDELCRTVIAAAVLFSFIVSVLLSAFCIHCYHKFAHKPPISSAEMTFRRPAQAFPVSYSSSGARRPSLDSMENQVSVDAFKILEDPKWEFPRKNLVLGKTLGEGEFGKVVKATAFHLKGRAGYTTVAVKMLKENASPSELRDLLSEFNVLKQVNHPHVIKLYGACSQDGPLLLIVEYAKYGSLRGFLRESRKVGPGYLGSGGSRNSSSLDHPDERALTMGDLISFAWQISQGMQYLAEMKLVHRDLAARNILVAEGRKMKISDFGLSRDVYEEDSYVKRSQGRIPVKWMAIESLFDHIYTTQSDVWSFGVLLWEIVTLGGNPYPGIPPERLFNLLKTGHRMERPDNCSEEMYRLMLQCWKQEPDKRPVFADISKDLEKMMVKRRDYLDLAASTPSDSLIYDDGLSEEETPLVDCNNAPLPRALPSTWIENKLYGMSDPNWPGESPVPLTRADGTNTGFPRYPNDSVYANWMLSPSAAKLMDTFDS
T1 sequence (P07949 whole entry, change not shown, the tested form may be a part): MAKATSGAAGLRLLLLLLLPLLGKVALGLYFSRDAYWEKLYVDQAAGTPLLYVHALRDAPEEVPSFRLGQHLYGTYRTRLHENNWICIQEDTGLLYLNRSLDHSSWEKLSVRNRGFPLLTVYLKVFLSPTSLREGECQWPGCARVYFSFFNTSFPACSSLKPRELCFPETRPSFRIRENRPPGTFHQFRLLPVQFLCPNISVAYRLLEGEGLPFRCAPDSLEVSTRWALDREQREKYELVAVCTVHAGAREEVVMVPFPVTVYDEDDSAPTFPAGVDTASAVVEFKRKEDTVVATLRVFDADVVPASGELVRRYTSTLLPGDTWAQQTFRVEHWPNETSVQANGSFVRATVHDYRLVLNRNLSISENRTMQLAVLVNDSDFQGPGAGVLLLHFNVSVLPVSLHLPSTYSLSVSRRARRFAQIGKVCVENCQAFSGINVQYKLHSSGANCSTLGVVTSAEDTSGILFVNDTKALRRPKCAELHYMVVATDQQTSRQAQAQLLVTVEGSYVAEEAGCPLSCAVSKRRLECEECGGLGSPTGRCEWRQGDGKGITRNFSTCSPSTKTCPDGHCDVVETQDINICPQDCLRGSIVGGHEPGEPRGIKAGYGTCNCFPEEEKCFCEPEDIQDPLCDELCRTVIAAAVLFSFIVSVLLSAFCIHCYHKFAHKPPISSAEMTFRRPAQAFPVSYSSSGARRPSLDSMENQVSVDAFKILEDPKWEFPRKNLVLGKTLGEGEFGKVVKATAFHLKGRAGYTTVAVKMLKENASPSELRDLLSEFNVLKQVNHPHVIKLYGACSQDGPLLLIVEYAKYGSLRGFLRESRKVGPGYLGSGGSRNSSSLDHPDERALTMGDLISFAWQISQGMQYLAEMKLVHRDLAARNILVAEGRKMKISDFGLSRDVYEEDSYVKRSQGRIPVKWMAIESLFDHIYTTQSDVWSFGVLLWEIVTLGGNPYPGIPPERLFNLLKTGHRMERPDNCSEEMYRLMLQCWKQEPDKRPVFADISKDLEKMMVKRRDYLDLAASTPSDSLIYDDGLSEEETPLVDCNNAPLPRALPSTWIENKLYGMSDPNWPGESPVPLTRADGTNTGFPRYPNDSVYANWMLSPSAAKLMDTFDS

GI50 [2] [µM]	IC50 [3] [µM]	IC50 [4] [µM]	Structure (SMILES)	IC50 [1] [µM]
0.05 to 0.1	0.05 to 0.1	≤ 0.01	COc1ccc(CN[C@]2(C)C[C@H]3CN(c4cnc(-c5cc(-c6cnn(C)c6)cn6ncc(C#N)c56)cn4)C[C@H]3C2)cn1 [Example 101, 4-(5-((3aR,5s,6aS)-5-(((6-methoxypyridin-3-yl)methyl)amino)-5-methylhexahydrocyclopenta[c]pyrrol-2(1H)-yl)pyrazin-2-yl)-6-(1-methyl-1H-pyrazol-4-yl)pyrazolo[1,5-a]pyridine-3-carbonitrile]	0.05 to 0.1
≤ 0.01	≤ 0.01	≤ 0.01	Cn1cc(-c2cc(-c3ccc(N4C[C@H]5CN(C(=O)c6c(F)cccc6Cl)C[C@H]5C4)nc3)c3c(C#N)cnn3c2)cn1 [Example 5, 4-(6-((3aR,6aS)-5-(2-chloro-6-fluorobenzoyl)hexahydropyrrolo[3,4-c]pyrrol-2(1H)-yl)pyridin-3-yl)-6-(1-methyl-1H-pyrazol-4-yl)pyrazolo[1,5-a]pyridine-3-carbonitrile]	≤ 0.01
≤ 0.01	0.01 to 0.05	≤ 0.01	Cn1cc(-c2cc(-c3cnc(N4C[C@@H]5C[C@@](C)(NC(=O)c6ncccc6Cl)C[C@@H]5C4)cn3)c3c(C#N)cnn3c2)cn1 [Example 61]	≤ 0.01
0.05 to 0.1	> 0.1	≤ 0.01	CC(C)(O)COc1cc(-c2ccc(N3C[C@H]4CN(C(=O)c5ncccc5Cl)C[C@H]4C3)nc2)c2c(C#N)cnn2c1 [Example 7, 4-(6-((3aR,6aS)-5-(3-chloropicolinoyl)hexahydropyrrolo[3,4-c]pyrrol-2(1H)-yl)pyridin-3-yl)-6-(2-hydroxy-2-methylpropoxy)pyrazolo[1,5-a]pyridine-3-carbonitrile]	≤ 0.01
≤ 0.01	0.01 to 0.05	≤ 0.01	C[C@@]1(NC(=O)c2ncccc2Cl)C[C@H]2CN(c3ccc(-c4cc(OCC5CNCCO5)cn5ncc(C#N)c45)cn3)C[C@H]2C1 (stereo partly drawn) [Example 53]	≤ 0.01
≤ 0.01	0.01 to 0.05	≤ 0.01	Cn1ccc(-c2cc(-c3ccc(N4C[C@@H]5C[C@@](C)(NC(=O)c6ncccc6Cl)C[C@@H]5C4)nc3)c3c(C#N)cnn3c2)n1 [Example 56, 3-chloro-N-((3aR,5s,6aS)-2-(5-(3-cyano-6-(1-methyl-1H-pyrazol-3-yl)pyrazolo[1,5-a]pyridin-4-yl)pyridin-2-yl)-5-methyloctahydro-cyclopenta[c]pyrrol-5-yl)picolinamide]	≤ 0.01
0.01 to 0.05	0.01 to 0.05	≤ 0.01	Cn1cc(-c2cc(-c3ccc(N4C[C@@H]5[C@H](C4)[C@H]5NC(=O)c4ncccc4Cl)nc3)c3c(C#N)cnn3c2)cn1 [Example 20, 3-chloro-N-((1R,5S,6s)-3-(5-(3-cyano-6-(1-methyl-1H-pyrazol-4-yl)pyrazolo[1,5-a]pyridin-4-yl)pyridin-2-yl)-3-azabicyclo[3.1.0]hexan-6-yl)picolinamide]	0.01 to 0.05
≤ 0.01	≤ 0.01	≤ 0.01	Cn1cc(-c2cc(-c3ccc(N4C[C@@H]5C[C@@](C)(NC(=O)c6ncccc6C#N)C[C@@H]5C4)nc3)c3c(C#N)cnn3c2)cn1 [Example 121, 3-cyano-N-((3aR,5s,6aS)-2-(5-(3-cyano-6-(1-methyl-1H-pyrazol-4-yl)pyrazolo[1,5-a]pyridin-4-yl)pyridin-2-yl)-5-methyloctahydrocyclopenta[c]pyrrol-5-yl)picolinamide]	≤ 0.01
≤ 0.01	0.01 to 0.05	≤ 0.01	CC(C)(O)COc1cc(-c2ccc(N3C4CC5CC3CC(NC(=O)c3ncccc3Cl)(C5)C4)nc2)c2c(C#N)cnn2c1 [Example 135, 3-chloro-N-((1R,3S,5s,7s)-2-(5-(3-cyano-6-(2-hydroxy-2-methylpropoxy)pyrazolo[1,5-a]pyridin-4-yl)pyridin-2-yl)-2-azaadamantan-5-yl)picolinainide]	≤ 0.01
≤ 0.01	0.01 to 0.05	≤ 0.01	CC(C)(O)COc1cc(-c2ccc(N3C4CC5CC3CC(C(=O)Nc3ncccc3Cl)(C5)C4)nc2)c2c(C#N)cnn2c1 [Example 98, (1R,3 S,5s,7s)-N-(3-chloropyridin-2-yl)-2-(5-(3-cyano-6-(2-hydroxy-2-methylpropoxy)pyrazolo[1,5-a]pyridin-4-yl)pyridin-2-yl)-2-azaadamantane-5-carboxamide]	≤ 0.01
0.01 to 0.05	> 0.1	≤ 0.01	CC(C)(O)COc1cc(-c2ccc(N3C[C@@H]4C[C@@](C)(NC(=O)c5ncccc5Cl)C[C@@H]4C3)nc2)c2c(C#N)cnn2c1 [Example 54, 3-chloro-N-((3aR,5s,6aS)-2-(5-(3-cyano-6-(2-hydroxy-2-methylpropoxy)pyrazolo[1,5-a]pyridin-4-yl)pyridin-2-yl)-5-methyloctahydro-cyclopenta[c]pyrrol-5-yl)picolinamide]	0.01 to 0.05
≤ 0.01	≤ 0.01	≤ 0.01	Cn1cc(-c2cc(-c3ccc(N4C[C@@H]5[C@@H](CNC(=O)c6ncccc6Cl)[C@@H]5C4)nc3)c3c(C#N)cnn3c2)cn1 [Example 73, 3-chloro-N-(((1R,5S,6s)-3-(5-(3-cyano-6-(1-methyl-1H-pyrazol-4-yl)pyrazolo[1,5-a]pyridin-4-yl)pyridin-2-yl)-3-azabicyclo[3.1.0]hexan-6-yl)methyl)picolinamide]	≤ 0.01
≤ 0.01	0.01 to 0.05	≤ 0.01	CC(C)C(O)C(=O)NC[C@@H]1[C@H]2CN(c3ccc(-c4cc(-c5cnn(C)c5)cn5ncc(C#N)c45)cn3)C[C@@H]12 (stereo partly drawn) [Example 75, N-(((1R,5S,6s)-3-(5-(3-cyano-6-(1-methyl-1H-pyrazol-4-yl)pyrazolo[1,5-a]pyridin-4-yl)pyridin-2-yl)-3-azabicyclo[3.1.0]hexan-6-yl)methyl)-2-hydroxy-3-methylbutanamide]	≤ 0.01
≤ 0.01	≤ 0.01	≤ 0.01	Cn1cc(-c2cc(-c3ccc(N4C[C@@H]5[C@H](C4)[C@H]5NS(=O)(=O)c4c(F)cccc4Cl)nc3)c3c(C#N)cnn3c2)cn1 [Example 46, 2-chloro-N-((1R,5S,6s)-3-(5-(3-cyano-6-(1-methyl-1H-pyrazol-4-yl)pyrazolo[1,5-a]pyridin-4-yl)pyridin-2-yl)-3-azabicyclo[3.1.0]hexan-6-yl)-6-fluorobenzene-sulfonamide]	≤ 0.01
0.01 to 0.05	> 0.1	≤ 0.01	CC(C)C(=O)NC12CC3CC(C1)N(c1ccc(-c4cc(OCC(C)(C)O)cn5ncc(C#N)c45)cn1)C(C3)C2 [Example 132, N-((1R,3S,5s,7s)-2-(5-(3-cyano-6-(2-hydroxy-2-methylpropoxy)pyrazolo[1,5-a]pyridin-4-yl)pyridin-2-yl)-2-azaadamantan-5-yl)isobutyramide]	≤ 0.01

From patent US20220220128A1, “HETEROCYCLIC COMPOUNDS AS KINASE INHIBITORS, COMPOSITIONS COMPRISING THE HETEROCYCLIC COMPOUND, AND METHODS OF USE THEREOF” (JS Innopharm (Shanghai) Ltd, priority 2019, published 2022)
